Data reported in patent US8609644B2, “Amino derivatives of androstanes and androstenes as medicaments for cardiovascular disorders” (priority 2006, dated 2013).
Counter-ions that a name gives are not always drawn. Like-named read-outs stand apart in the source and are kept apart here.

Assays:
Na+, K+-ATPase = Na+, K+-ATPase (Canis lupus familiaris, UniProt P50997); assay: biochemical; design: species or system dog
anesthetized guinea-pig = assay: Inotropic effect and lethal dose, slow intravenous infusion (over 90 minutes) in anesthetized guinea-pig; details: for ED80 / ED (max) / Emax: Cavia porcellus, iv, 1.5 h; for ED80: read-out: ED80 (inotropic potency, dose increasing +dP/dTmax by 80%); for ED (max): read-out: EDmax (dose inducing maximum positive inotropic effect); for Emax: read-out: Emax % increase in +dP/dTmax; for Maximum dose infused: maximum dose infused in the survived animals
[1] = read-out: Na+, K+-ATPase Inhibition IC50
[2] = dog kidney enzyme, read-out: Na+, K+-ATPase Inhibition IC50

3α-(3-Aminopropylthio)-6-(E)-hydroxyiminoandrostane-17-one hemifumarate [I-dw]
IC50 (Na+, K+-ATPase; [1]): 850 nM

CC12CCC3C(CC(C#N)C4CC(=NOCCN)CCC43C)C1CCC2=O (mixture of isomers) [I-ac, (E,Z) 3-(2-Aminoethoxyimino)-6α-cyanoandrostan-17-one fumarate]
IC50 (Na+, K+-ATPase; [2]): 1100 nM

C[C@]12CC[C@H]3[C@@H](C[C@@H](C#N)[C@@]4(O)CC(=NOCCN)CC[C@]34C)[C@@H]1CCC2=O (mixture of isomers) [I-ae, (E,Z) 3-(2-Aminoethoxyimino)-5α-hydroxy-6β-cyanoandrostane-17-one fumarate]
IC50 (Na+, K+-ATPase; [2]): 11000 nM

CC12CCC3C(CC4(OCCO4)C4CC(=NOCCN)CCC34C)C1CCC2=O (mixture of isomers) [I-ag, (E,Z) 3-(2-Aminoethoxyimino)-6-(2-spiro-1,3-dioxolane)androstane-17-one fumarate]
IC50 (Na+, K+-ATPase; [2]): 5400 nM

COCC1CC2C3CCC(=O)C3(C)CCC2C2(C)CCC(=NOCCN)CC12 (mixture of isomers) [I-ak, (E,Z) 3-(2-Aminoethoxyimino)-6β-methoxymethylandrostan-17-one hydrochloride]
IC50 (Na+, K+-ATPase; [2]): 3000 nM

CC12CCC3C(CC(C(=O)O)C4CC(=NOCCN)CCC43C)C1CCC2=O (mixture of isomers) [I-ar, (E,Z) 3-(2-Aminoethoxyimino)-6α-carboxyandrostan-17-one hydrochloride]
IC50 (Na+, K+-ATPase; [2]): 16000 nM

CC12CCC3C(CC(C(N)=O)C4CC(=NOCCN)CCC43C)C1CCC2=O (mixture of isomers) [I-at, (E,Z) 3-(2-Aminoethoxyimino)-6α-carbamoylandrostan-17-one fumarate]
IC50 (Na+, K+-ATPase; [1]): 630 nM

COC(=O)C1CC2C3CCC(=O)C3(C)CCC2C2(C)CCC(=NOCCN)CC12 (mixture of isomers) [I-au, (E,Z) 3-(2-Aminoethoxyimino)-6α-methoxycarbonylandrostan-17-one hydrochloride]
IC50 (Na+, K+-ATPase; [2]): 410 nM

CCON=C1CC2C3CCC(=O)C3(C)CCC2C2(C)CCC(=NOCCN)CC12 (mixture of isomers) [I-ax, (E,Z)-3-(2-Aminoethoxyimino)-6-(E)-ethoxyiminoandrostan-17-one hydrochloride]
IC50 (Na+, K+-ATPase; [2]): 1700 nM

C[C@]12CCC(=NOCCN)C[C@@H]1[C@]1(CO1)C[C@@H]1[C@@H]2CC[C@]2(C)C(=O)CC[C@@H]12 (mixture of isomers) [I-bb, (E,Z)-3-(2-Aminoethoxyimino)androstane-6(S)-(spiro-2′-oxirane)-17-one hydrochloride]
IC50 (Na+, K+-ATPase; [2]): 870 nM

CC(=O)N[C@H]1C[C@@H]2[C@H](CC[C@]3(C)C(=O)CC[C@@H]23)[C@@]2(C)CCC(=NOCCN)C[C@H]12 (mixture of isomers) [I-bf, (E,Z) 3-(2-Aminoethoxyimino)-6α-acetamidoandrostan-17-one hydrochloride]
IC50 (Na+, K+-ATPase; [2]): 45000 nM

C/C=C1\C[C@@H]2[C@H](CC[C@]3(C)C(=O)CC[C@@H]23)[C@@]2(C)CCC(=NOCCN)C[C@H]12 (mixture of isomers) [I-bg, (E,Z) 3-(2-Aminoethoxyimino)-6-(E)-ethylidenandrostan-17-one hydrochloride]
IC50 (Na+, K+-ATPase; Na+, K+-ATPase Inhibition IC50): 1100 nM

C[C@]12CCC(=NOCCN)C[C@@H]1C(=C(F)F)C[C@@H]1[C@@H]2CC[C@]2(C)C(=O)CC[C@@H]12 (mixture of isomers) [I-bh, (E,Z) 3-(2-Aminoethoxyimino)-6-difluoromethyleneandrostan-17-one hydrochloride]
IC50 (Na+, K+-ATPase; Na+, K+-ATPase Inhibition IC50): 190 nM

CC12CCC3C(CC(=CCO)C4CC(=NOCCN)CCC43C)C1CCC2=O (mixture of isomers) [I-bj, (E,Z) 3-(2-Aminoethoxyimino)-6-(E)-[2-hydroxyethylidene]androstan-17-one hydrochloride]
IC50 (Na+, K+-ATPase; Na+, K+-ATPase Inhibition IC50): 770 nM

COC(=O)C=C1CC2C3CCC(=O)C3(C)CCC2C2(C)CCC(=NOCCN)CC12 (mixture of isomers) [I-bk, Methyl [3-(E,Z)-(2-aminoethoxyimino)-17-oxoandrostane-6-(E)-ylidene]-acetate hydrochloride]
IC50 (Na+, K+-ATPase; [2]): 64000 nM

CC12CCC3C(CC(CNC=O)C4CC(=NOCCN)CCC43C)C1CCC2=O (mixture of isomers) [I-bn, (E,Z) 3-(2-Aminoethoxyimino)-6α-formamidomethylandrostane-17-one hydrochloride]
IC50 (Na+, K+-ATPase; [2]): 5100 nM

C=CCON=C1CC2CC(=NOCCN)CCC2(C)C2CCC3(C)C(=O)CCC3C12 (mixture of isomers) [I-bu, (E,Z)-3-(2-Aminoethoxyimino)-7-(E)-allyloxyiminoandrostan-17-one fumarate]
IC50 (Na+, K+-ATPase; [2]): 3800 nM

C=C1CC2CC(=NOCCN)CCC2(C)C2CCC3(C)C(=O)CCC3C12 (mixture of isomers) [I-bx, (E,Z) 3-(2-Aminoethoxyimino)-7-methyleneandrostane-17-one hydrochloride]
IC50 (Na+, K+-ATPase; Na+, K+-ATPase Inhibition IC50): 400 nM

C[C@H]1C[C@H]2CC(=NOCCN)CC[C@]2(C)[C@H]2CC[C@]3(C)C(=O)CC[C@H]3[C@H]12 (mixture of isomers) [I-by, (E,Z) 3-(2-Aminoethoxyimino)-7β-methylandrostane-17-dione hydrochloride]
IC50 (Na+, K+-ATPase; Na+, K+-ATPase Inhibition IC50): 640 nM

C[C@]12CCC(=NOCCN)C[C@@H]1C[C@@H](CO)[C@@H]1[C@@H]2CC[C@]2(C)C(=O)CC[C@@H]12 (mixture of isomers) [I-bz, (E,Z) 3-(2-Aminoethoxyimino)-7α-hydroxymethylandrostane-17-one hydrochloride]
IC50 (Na+, K+-ATPase; [2]): 1100 nM

C[C@]12CCC(=NOCCN)C[C@@H]1CC1(CC1)[C@@H]1[C@@H]2CC[C@]2(C)C(=O)CC[C@@H]12 (mixture of isomers) [I-cb, (E,Z) 3-(2-Aminoethoxyimino)-7-(spirocyclopropane)androstan-17-one hydrochloride]
IC50 (Na+, K+-ATPase; [2]): 130 nM

CC12CCC3C(C(=O)C(CO)C4CC(=NOCCN)CCC43C)C1CCC2=O (mixture of isomers) [I-cd, (E,Z) 3-(2-Aminoethoxyimino)-6α-hydroxymethylandrostane-7,17-dione hydrochloride]
IC50 (Na+, K+-ATPase; [2]): 12 nM

C=C1C[C@H]2[C@@H]3CCC(=O)[C@@]3(C)CC[C@@H]2[C@@]2(C)CCC(=NOCCNC)C[C@]12O (mixture of isomers) [I-cg, (E,Z) 3-(2-N-Methylaminoethoxyimino)-5α-hydroxy-6-methylenandrostan-17-one hydrochloride]
IC50 (Na+, K+-ATPase; Na+, K+-ATPase Inhibition IC50): 2600 nM

C=C1CC2C3CCC(=O)C3(C)CCC2C2(C)CCC(=NOCCCNC)CC12 (mixture of isomers) [I-ck, (E,Z) 3-(3-N-Methylaminopropoxyimino)-6-methyleneandrostane-17-one fumarate]
IC50 (Na+, K+-ATPase; Na+, K+-ATPase Inhibition IC50): 570 nM

CNCCCON=C1CCC2(C)C(C1)C(C(=O)OC)CC1C3CCC(=O)C3(C)CCC12 (mixture of isomers) [I-cm, (Z,E) 3-(3-N-Methylaminopropoxyimino)-6α-methoxycarbonylandrostan-17-one hydrochloride]
IC50 (Na+, K+-ATPase; [2]): 4000 nM

CNCCCON=C1CC[C@@]2(C)[C@H](C1)[C@@H](C(N)=O)C[C@@H]1[C@@H]2CC[C@]2(C)C(=O)CC[C@@H]12 (mixture of isomers) [I-cn, (Z,E) 3-(3-N-Methylaminopropoxyimino)-6α-carbamoylandrostan-17-one hydrochloride]
IC50 (Na+, K+-ATPase; [2]): 1900 nM

CNCCCON=C1CCC2(C)C3CCC4(C)C(=O)CCC4C3CC3(CC3)C2C1 (mixture of isomers) [I-cp, (E,Z) 3-(3-N-Methylaminopropoxyimino)-6-(spirocyclopropane)androstan-17-one hydrochloride]
IC50 (Na+, K+-ATPase; [2]): 1300 nM

CNCCCON=C1CC[C@]2(C)[C@H]3CC[C@]4(C)C(=O)CC[C@H]4[C@@H]3C/C(=N\O)[C@@]2(O)C1 (mixture of isomers) [I-cr, (E,Z) 3-(3-N-Methylaminopropoxyimino)-5α-hydroxy-6-(E)-hydroxyiminoandrostan-17-one hydrochloride]
ED80 (anesthetized guinea-pig): 1.21 µmol/kg
ED (max) (anesthetized guinea-pig): 11.8 µmol/kg
Emax (anesthetized guinea-pig): 180%
% decrease from Emax after 20 min from the end of the infusion (anesthetized guinea-pig; duration of the inotropic effect): 47%
Maximum dose infused (anesthetized guinea-pig): 50.4 µmol/kg

C=C1C[C@H]2[C@@H]3CCC(=O)[C@@]3(C)CC[C@@H]2[C@@]2(C)CCC(=NOCCCNC)C[C@]12O (mixture of isomers) [I-ct, (E,Z) 3-(3-N-Methylaminopropoxyimino)-5α-hydroxy-6-methylenandrostan-17-one hydrochloride]
IC50 (Na+, K+-ATPase; Na+, K+-ATPase Inhibition IC50): 1400 nM

CNCCCON=C1CCC2(C)C(CC(=O)C3C4CCC(=O)C4(C)CCC32)C1 (mixture of isomers) [I-cu, (E,Z) 3-(3-N-Methylaminopropoxyimino)androstane-7,17-dione fumarate]
IC50 (Na+, K+-ATPase; Na+, K+-ATPase Inhibition IC50): 390 nM

CNCCCON=C1CCC2(C)C(C1)CC1(CC1)C1C3CCC(=O)C3(C)CCC12 (mixture of isomers) [I-cv, (E,Z) 3-(3-N-Methylaminopropoxyimino)-7-(spirocyclopropane)androstan-17-one hydrochloride]
IC50 (Na+, K+-ATPase; [2]): 740 nM

CNCCCON=C1CC[C@@]2(C)[C@H](C1)C[C@H](CO)[C@@H]1[C@@H]2CC[C@]2(C)C(=O)CC[C@@H]12 (mixture of isomers) [I-cw, (E,Z) 3-(3-N-Methylaminopropoxyimino)-7β-hydroxymethylandrostane-17-one hydrochloride]
IC50 (Na+, K+-ATPase; [2]): 2300 nM

COCC1CC2CC(=NOCCN)CCC2(C)C2CCC3(C)C(=O)CCC3C12 (mixture of isomers) [I-ed, (E,Z) 3-(2-Aminoethoxyimino)-7α-methoxymethylandrostane-17-one hydrochloride]
IC50 (Na+, K+-ATPase; [2]): 38000 nM

C[C@H]1O[C@@H](O[C@H]2[C@@H](O)C[C@H](O[C@H]3[C@@H](O)C[C@H](O[C@H]4CC[C@@]5(C)[C@H](CC[C@@H]6[C@@H]5C[C@@H](O)[C@]5(C)[C@@H](C7=CC(=O)OC7)CC[C@]65O)C4)O[C@@H]3C)O[C@@H]2C)C[C@H](O)[C@@H]1O [digoxin, reference compound]
ED80 (anesthetized guinea-pig): 0.29 µmol/kg
ED (max) (anesthetized guinea-pig): 0.65 µmol/kg
Emax (anesthetized guinea-pig): 158%
Maximum dose infused (anesthetized guinea-pig): 1.16 µmol/kg
